Assay results taken from patent publication US12479827B2, “Heteroaromatic carboxamide derivatives as plasma kallikrein inhibitors” (Boehringer Ingelheim International GmbH, priority 2020, dated 2025).

Legend:
[1] = biological target: T1, PKK in kaolin activated human platelet poor plasma (Homo sapiens, UniProt P03952); assay: Inhibition of PKK in kaolin activated human PPP; type: biochemical; conditions: 25-750 μg/mL kaolin, global fit, text b200 calls the values IC90;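 also: readout is the rate of fluorogenic substrate cleavage in rfu per min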
T1 construct: Platelet poor plasma (PPP) obtained from human wholeblood; from tissue
Protocol: Platelet poor plasma (PPP) obtained from human wholeblood, anticoagulated with Na-Citrate, is incubated with various concentrations of the test compound together with either 25, 75, 250, or 750 μg/mL kaolin in assay buffer for 20 min at 37° C. such that for each kaolin dose used a concentration response is obtained for the test compound.

Human PKK = biological target: T2, Human PKK (Homo sapiens, UniProt P03952); assay: Inhibition of PKK using an endpoint assay (human PKK); type: biochemical; conditions: fluorogenic substrate H-Pro-Phe-Arg-AMC, 1 h room temperature, method names human or rat PKK, table does not say which
T2 construct: purchased Enzyme Research Laboratories
In short: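 Endpoint fluorescence (ex 355 nm, em 460 nm) after stopping with 1 μM final PPACK II. Buffer: Tris 100 mM pH 7.8, NaCl 150 mM, BSA 0.1%, Tween20 0.05%, with 1% DMSO present; enzyme is human plasma kallikrein.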

T2 sequence (P03952 20-390 limits assumed): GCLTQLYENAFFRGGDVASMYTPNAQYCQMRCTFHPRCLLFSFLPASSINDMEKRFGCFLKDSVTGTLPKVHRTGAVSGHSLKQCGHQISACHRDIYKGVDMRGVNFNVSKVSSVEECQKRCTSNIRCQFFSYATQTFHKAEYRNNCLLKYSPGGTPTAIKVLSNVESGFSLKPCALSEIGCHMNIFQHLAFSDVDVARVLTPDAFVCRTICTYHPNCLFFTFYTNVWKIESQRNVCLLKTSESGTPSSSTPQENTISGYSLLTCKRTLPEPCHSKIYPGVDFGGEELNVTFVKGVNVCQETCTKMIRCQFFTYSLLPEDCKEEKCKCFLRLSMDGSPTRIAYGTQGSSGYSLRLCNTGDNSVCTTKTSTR
T2 sequence (P03952 391-638 limits assumed): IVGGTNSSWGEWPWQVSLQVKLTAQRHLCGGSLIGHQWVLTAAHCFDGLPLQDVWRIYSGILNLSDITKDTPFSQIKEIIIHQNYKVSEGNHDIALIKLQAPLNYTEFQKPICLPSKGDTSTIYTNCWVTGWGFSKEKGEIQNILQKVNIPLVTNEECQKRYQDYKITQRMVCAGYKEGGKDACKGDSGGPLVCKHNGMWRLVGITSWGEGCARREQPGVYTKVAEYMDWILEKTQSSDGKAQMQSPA
T1 sequence (P03952 391-638 limits assumed): as above
T1 sequence (P03952 20-390 limits assumed): as the sequence (P03952 20-390 limits assumed) above

Structure (SMILES) | IC50 [1] [nM] | IC50 (Human PKK) [nM]
CCc1nc(N2CC3C(C2)C3(F)F)ccc1Cc1cc(C(=O)N[C@@H]2CCc3c2ncn3C)n(C(C)C)n1 (stereo partly drawn) [Example 160, 3-[(6-{6,6-Difluoro-3-azabicyclo[3.1.0]hexan-3-yl}-2-ethylpyridin-3-yl)methyl]-N-[(4R)-1-methyl-1H,4H,5H,6H-cyclopenta[d]imidazol-4-yl]-1-(propan-2-yl)-1H-pyrazole-5-carboxamide] | 967 | 2.2
CCc1nc(N2CC3C(C2)C3(F)F)ccc1Cc1cc(C(=O)N[C@@H]2CCc3c2ncn3C)n(CC)n1 (stereo partly drawn) [Example 161, 3-[(6-{6,6-Difluoro-3-azabicyclo[3.1.0]hexan-3-yl}-2-ethylpyridin-3-yl)methyl]-1-ethyl-N-[(4R)-1-methyl-1H,4H,5H,6H-cyclopenta[d]imidazol-4-yl]-1H-pyrazole-5-carboxamide] | 431 | 1.5
CCc1nc(N2CC3CC3C2)ccc1Cc1cc(C(=O)N[C@@H]2CCc3c2ncn3C)n(CC)n1 (stereo partly drawn) [Example 162, 3-[(6-{3-Azabicyclo[3.1.0]hexan-3-yl}-2-ethylpyridin-3-yl)methyl]-1-ethyl-N-[(4R)-1-methyl-1H,4H,5H,6H-cyclopenta[d]imidazol-4-yl]-1H-pyrazole-5-carboxamide] | 231 | 1.1
CCn1nc(Cc2ccc(N3CC4C(C3)C4(F)F)nc2C)cc1C(=O)N[C@@H]1CCc2c1ncn2C (stereo partly drawn) [Example 163, 3-[(6-{6,6-Difluoro-3-azabicyclo[3.1.0]hexan-3-yl}-2-methylpyridin-3-yl)methyl]-1-ethyl-N-[(4R)-1-methyl-1H,4H,5H,6H-cyclopenta[d]imidazol-4-yl]-1H-pyrazole-5-carboxamide] | 470 | 2.2
CCn1nc(Cc2ccc(N3CC4CC4C3)nc2C)cc1C(=O)N[C@@H]1CCc2c1ncn2C (stereo partly drawn) [Example 164, 3-[(6-{3-Azabicyclo[3.1.0]hexan-3-yl}-2-methylpyridin-3-yl)methyl]-1-ethyl-N-[(4R)-1-methyl-1H,4H,5H,6H-cyclopenta[d]imidazol-4-yl]-1H-pyrazole-5-carboxamide] | 443 | 1.8
CCc1nc(N2CC3CC3C2)ccc1Cc1cc(C(=O)N[C@@H]2CCc3c2ncn3C)[nH]n1 (stereo partly drawn) [Example 165, 3-[(6-{3-Azabicyclo[3.1.0]hexan-3-yl}-2-ethylpyridin-3-yl)methyl]-N-[(4R)-1-methyl-1H,4H,5H,6H-cyclopenta[d]imidazol-4-yl]-1H-pyrazole-5-carboxamide] | 342 | 0.8
CCc1nc(N2CC3CC3C2)ccc1Cc1cc(C(=O)N[C@@H]2CCc3c2ncn3C)n(C)n1 (stereo partly drawn) [Example 166, 3-[(6-{3-Azabicyclo[3.1.0]hexan-3-yl}-2-ethylpyridin-3-yl)methyl]-1-methyl-N-[(4R)-1-methyl-1H,4H,5H,6H-cyclopenta[d]imidazol-4-yl]-1H-pyrazole-5-carboxamide] | 193 | 1
Cc1nc(N2CC3C(C2)C3(F)F)ccc1Cc1cc(C(=O)N[C@@H]2CCc3c2ncn3C)n(C)n1 (stereo partly drawn) [Example 167, 3-[(6-{6,6-Difluoro-3-azabicyclo[3.1.0]hexan-3-yl}-2-methylpyridin-3-yl)methyl]-1-methyl-N-[(4R)-1-methyl-1H,4H,5H,6H-cyclopenta-[d]imidazol-4-yl]-1H-pyrazole-5-carboxamide] | 272 | 1.3
Cc1nc(N2CC3CC3C2)ccc1Cc1cc(C(=O)N[C@@H]2CCc3c2ncn3C)n(C)n1 (stereo partly drawn) [Example 168, 3-[(6-{3-Azabicyclo[3.1.0]hexan-3-yl}-2-methylpyridin-3-yl)methyl]-1-methyl-N-[(4R)-1-methyl-1H,4H,5H,6H-cyclopenta[d]imidazol-4-yl]-1H-pyrazole-5-carboxamide] | 1860 | 1.5
Cc1nc(N2CC3CC3C2)ncc1Cn1cc(C(=O)N[C@@H]2CCc3c2ncn3C)c2cncnc21 (stereo partly drawn) [Example 174, 7-[(2-{3-Azabicyclo[3.1.0]hexan-3-yl}-4-methylpyrimidin-5-yl)methyl]-N-[(4R)-1-methyl-1H,4H,5H,6H-cyclopenta[d]imidazol-4-yl]-7H-pyrrolo[2,3-d]pyrimidine-5-carboxamide] | 1430 | 1.9
CCOCc1nc(N2CC3C(C2)C3(F)F)ccc1Cn1cc(C(=O)N[C@@H]2CCc3c2ncn3C)cn1 (stereo partly drawn) [Example 179, 1-[(6-{6,6-Difluoro-3-azabicyclo[3.1.0]hexan-3-yl}-2-(ethoxymethyl)pyridin-3-yl)methyl]-N-[(4R)-1-methyl-1H,4H,5H,6H-cyclopenta[d]imidazol-4-yl]-1H-pyrazole-4-carboxamide] | 389 | 4.2
COCc1nc(N2CC3CC3C2)ccc1Cn1cnc(C(=O)N[C@@H]2CCc3c2ncn3C)c1 (stereo partly drawn) [Example 180, 1-[(6-{3-Azabicyclo[3.1.0]hexan-3-yl}-2-(methoxymethyl)pyridin-3-yl)methyl]-N-[(4R)-1-methyl-1H,4H,5H,6H-cyclopenta[d]imidazol-4-yl]-1H-imidazole-4-carboxamide] | 207 | 2.6
Cc1nc(N2CC3CC3C2)ccc1Cc1cc(C(=O)N[C@@H]2CCc3c2ncn3C)co1 (stereo partly drawn) [Example 182, 5-[(6-{3-Azabicyclo[3.1.0]hexan-3-yl}-2-methylpyridin-3-yl)methyl]-N-[(4R)-1-methyl-1H,4H,5H,6H-cyclopenta[d]imidazol-4-yl]furan-3-carboxamide] | 6270 | 7.1
CCc1nc(N2CC3C(C2)C3(F)F)ccc1Cc1ccc(C(=O)N[C@@H]2CCc3c2ncn3C)s1 (stereo partly drawn) [Example 184, 5-[(6-{6,6-Difluoro-3-azabicyclo[3.1.0]hexan-3-yl}-2-ethylpyridin-3-yl)methyl]-N-[(4R)-1-methyl-1H,4H,5H,6H-cyclopenta[d]imidazol-4-yl]thiophene-2-carboxamide] | 2310 | 13.5
Cn1cnc2c1CC[C@H]2NC(=O)c1ccc(Cc2ccc(N3CC4C(C3)C4(F)F)nc2CO)s1 (stereo partly drawn) [Example 185, 5-[(6-{6,6-Difluoro-3-azabicyclo[3.1.0]hexan-3-yl}-2-(hydroxymethyl)pyridin-3-yl)methyl]-N-[(4R)-1-methyl-1H,4H,5H,6H-cyclopenta-[d]imidazol-4-yl]thiophene-2-carboxamide] | 2270 | 10.9
CCc1nc(N2CC3C(C2)C3(F)F)ccc1Cc1ccc(C(=O)N[C@@H]2CCc3c2ncn3C)o1 (stereo partly drawn) [Example 186, 5-[(6-{6,6-difluoro-3-azabicyclo[3.1.0]hexan-3-yl}-2-ethylpyridin-3-yl)methyl]-N-[(4R)-1-methyl-1H,4H,5H,6H-cyclopenta[d]imidazol-4-yl]furan-2-carboxamide] | 236 | 10.9
Cc1nc(N2CC3C(C2)C3(F)F)ccc1Cc1ccc(C(=O)N[C@@H]2CCc3c2ncn3C)s1 (stereo partly drawn) [Example 187, 5-[(6-{6,6-Difluoro-3-azabicyclo[3.1.0]hexan-3-yl}-2-methylpyridin-3-yl)methyl]-N-[(4R)-1-methyl-1H,4H,5H,6H-cyclopenta[d]imidazol-4-yl]thiophene-2-carboxamide] | 2450 | 12.2
Cc1nc(N2CC3C(C2)C3(F)F)ccc1Cc1ncc(C(=O)N[C@@H]2CCc3c2ncn3C)s1 (stereo partly drawn) [Example 188, 2-[(6-{6,6-Difluoro-3-azabicyclo[3.1.0]hexan-3-yl}-2-methylpyridin-3-yl)methyl]-N-[(4R)-1-methyl-1H,4H,5H,6H-cyclopenta[d]imidazol-4-yl]-1,3-thiazole-5-carboxamide] | 1500 | 19.8
Cc1cc(N2CC3C(C2)C3(F)F)ccc1Cn1cc(C(=O)N[C@@H]2CCc3c2ncn3C)cn1 (stereo partly drawn) [Example 199, 1-[(4-{6,6-difluoro-3-azabicyclo[3.1.0]hexan-3-yl}-2-methylphenyl)methyl]-N-[(4R)-1-methyl-1H,4H,5H,6H-cyclopenta[d]imidazol-4-yl]-1H-pyrazole-4-carboxamide] | 808 | 3.1
Cn1cnc2c1CC[C@H]2NC(=O)c1cn(Cc2ccc(N3CC4CC4C3)c(C#N)c2F)cn1 (stereo partly drawn) [Example 201, 1-[(4-{3-azabicyclo[3.1.0]hexan-3-yl}-3-cyano-2-fluorophenyl)methyl]-N-[(4R)-1-methyl-1H,4H,5H,6H-cyclopenta[d]imidazol-4-yl]-1H-imidazole-4-carboxamide] | 130 | 0.6
Cn1cnc2c1CC[C@H]2NC(=O)c1cnn(Cc2ccc(N3CC4CC4C3)c(C#N)c2Cl)c1 (stereo partly drawn) [Example 202, 1-[(4-{3-azabicyclo[3.1.0]hexan-3-yl}-2-chloro-3-cyanophenyl)methyl]-N-[(4R)-1-methyl-1H,4H,5H,6H-cyclopenta[d]imidazol-4-yl]-1H-pyrazole-4-carboxamide] | 157 | 0.5
Cn1cnc2c1CC[C@H]2NC(=O)c1cn(Cc2ccc(N3CC4CC4C3)c(C#N)c2Cl)cn1 (stereo partly drawn) [Example 203, 1-[(4-{3-azabicyclo[3.1.0]hexan-3-yl}-2-chloro-3-cyanophenyl)methyl]-N-[(4R)-1-methyl-1H,4H,5H,6H-cyclopenta[d]imidazol-4-yl]-1H-imidazole-4-carboxamide] | 202 | 0.7
Cn1cnc2c1CC[C@H]2NC(=O)c1cn(Cc2ccc(N3CC4CC4C3)cc2Br)cn1 (stereo partly drawn) [Example 204, 1-[(4-{3-azabicyclo[3.1.0]hexan-3-yl}-2-bromophenyl)methyl]-N-[(4R)-1-methyl-1H,4H,5H,6H-cyclopenta[d]imidazol-4-yl]-1H-imidazole-4-carboxamide] | 818 | 1.5
